In US12522596B2, “Compounds as GLP-1R agonists” (Terns Pharmaceuticals, Inc., priority 2021, dated 2026):

Legend:
human GLP-1R receptor = molecular target: T1, human GLP-1R receptor (Homo sapiens, UniProt P43220); test: GLP-1R low expression cell assay (cAMP TR-FRET, CHO-K1_hGLP-1Rlow_clone10); format: cell-based; conditions: CHO-K1_hGLP-1Rlow_clone10 cells
T1 construct: expressed in transfected cells
Experimental: Stable cell lines expressing high and low GLP-1R surface expression were generated in CHO-K1 cells transfected (Fugene 6) with a puromycin selectable DNA plasmid encoding human GLP-1R receptor (accession number: NM_002062.5) under control of an EF1A promoter. Transfected cells were seeded into 24-well plates (9,000 cells/well) containing complete medium and incubated in a humidified incubator at 37° C. with 5% carbon dioxide. After overnight incubation, medium was replaced with complete medium supplemented with puromycin (6 μg/mL) and refreshed every 2-3 days to select for stably transfected cells. Individual pools of selected cells were expanded prior to analysis for responsiveness to GLP-1 control peptide using a TR-FRET assay to detect cAMP (LANCE Ultra CAMP Assay, Perkin Elmer). Briefly, cells were collected in Versene solution, plated in 384-well plates (1,000 cells/well) and combined with serially diluted GLP-1R control peptide (10 nL) using an acoustic dispenser (ECHO). Plates were incubated for 30 minutes at 25° C. prior to the addition of EU-CAMP tracer (5 μL) and Ulight-anti-cAMP (5 μL) reagents to each well, followed by 15 minutes incubation at 25° C. TR-FRET signal was detected using an En Vision Multimode Plate Reader (excitation=320 nm; emission=615 and 655 nm). Dose-response curves were used to generate EC50 values as a measure of responsiveness to the GLP-1R control peptide. Selected cell lines were monitored for responsiveness over multiple passages to ensure stability. […] Briefly, GLP-1R expression was analyzed by flow cytometry using a fluorescein-labeled Exendin-4 peptide fluorescent probe (FLEX). Cells were harvested in Versene solution and washed 3-times with PBS+0.5% BSA before incubation with FLEX reagent (10 μM) for 2 hours at room temperature. After incubation, cells were washed 3-times in PBS+0.5% BSA before final resuspension in PBS prior to analysis by flow cytometry to measure FLEX mean fluorescence intensity (MFI) as a measure of GLP-1R expression on the cell surface.
For compound testing in the CHO-K1_hGLP-1Rlow_clone10 cell line, cells were seeded in 384-well plates (1,000 cells/well). Test compounds were serially diluted in DMSO (10-point, 3-fold dilution), added to wells using an ECHO dispenser (10 nL/well) and plates were centrifuged for 1 min and agitated for 2 min at room temperature prior to 30-minute incubation at 25° C. After incubation, Eu-CAMP (5 μL) and Ulight-anti-cAMP (5 μL) reagents were added to each well, followed by centrifugation for 1 minute, agitation for 2 minutes at room temperature, and final incubation of the plates at 25° C. for 15 minutes. Plates were read using an EnVision microplate reader (excitation=320 nm; emission=615 and 655 nm). Dose-response curves were generated from duplicate wells based on percent activation calculated relative to a control GLP-1 peptide agonist that was run in parallel. EC50 values were determined by fitting percent activation as a function of compound concentration using the Hill equation (XLfit).
Stable cell lines expressing high and low GLP-1R surface expression were generated in CHO-K1 cells transfected (Fugene 6) with a puromycin selectable DNA plasmid encoding human GLP-1R receptor (accession number: NM_002062.5) under control of an EF1A promoter. Transfected cells were seeded into 24-well plates (9,000 cells/well) containing complete medium and incubated in a humidified incubator at 37° C. with 5% carbon dioxide. After overnight incubation, medium was replaced with complete medium supplemented with puromycin (6 μg/mL) and refreshed every 2-3 days to select for stably transfected cells. Individual pools of selected cells were expanded prior to analysis for responsiveness to GLP-1 control peptide using a TR-FRET assay to detect cAMP (LANCE Ultra CAMP Assay, Perkin Elmer).

[1] = Metabolic stability in rat hepatocytes; format: in vitro ADME; conditions: cryopreserved hepatocytes, 1 μM
Experimental: (§1) Test compounds were incubated in rat and human hepatocytes and stability was assessed from the substrate […] approach. Test compounds were dissolved in dimethyl sulfoxide (DMSO) to create a 10 mM Stock, and then further diluted to create a 1000× Working Stock of 1 mM with DMSO in 96-well plates for test compounds and the positive control (midazolam). Vials containing cryopreserved hepatocytes were removed from the liquid nitrogen tank and immediately immersed in a 37° C. water bath. The vials were shaken gently until the contents had thawed and were then immediately emptied into 48 mL of pre-warmed HT Medium in a 50 mL conical tube. Cells remaining in the vial were resuspended with 1.0 mL of pre-warmed HT Medium and added to the conical tube. The tube was capped and then gently inverted several times to resuspend the hepatocytes. The cell suspension was centrifuged at 50×g at room temperature for 5 minutes and the supernatant discarded. The cell pellet was loosened by gently swirling the centrifuge tube and was re-suspended in 4 mL of warm Dulbecco's Modified Eagle medium (DMEM). Cell density was determined by a cell counter by Nexcelom, and DMEM medium was added to obtain a target density of 1×10^6 cells/mL. The assay was carried out in 96-well microtiter plates. Test Compounds were incubated at 1 μM with 1×10^6 cells/mL hepatocytes in DMEM for 0, 30, 60, 120 and 240 minutes. The incubation was carried out with gentle shaking at 37° C. under a humid atmosphere of 95% air/5% CO2. The volume of the incubation mixture was 37 μL with a final 0.1% DMSO. At each of the time points, the incubation was stopped by adding 150 μL quenching solution (100% acetonitrile, 0.1% formic acid containing bucetin as an internal standard for positive ESI mode). Subsequently, the mixtures were vortexed for 20 min and centrifuged at 4,000 RPM at 10° C. The supernatant (80 μL) was transferred to a clean 96-well plate and analyzed by LC-MS/MS. Midazolam at 1 μM with a final 0.1% DMSO was included as a positive control to verify assay performance. The percent parent remaining, intrinsic and predicted hepatic clearance and t1/2 were calculated. All samples were analyzed by LC-MS/MS using an AB Sciex API 4000 instrument, coupled to a Shimadzu LC-20AD LC Pump system. Separation was achieved using a Waters Atlantis T3 dC18 reverse phase HPLC column (20 mm×2.1 mm) at a flow rate of 0.5 mL/min. The mobile phase consisted of 0.1% formic acid in water (solvent A) and 0.1% formic acid in 100% acetonitrile (solvent B). Elution conditions are detailed below.
(§2) The ion optics of each test compound were optimized for their declustering potential (DP), […] (CE), collision-cell exit potential (CXP) and used in a selected ion monitoring experiment in the positive ion mode. The peak area ratio of each test compound to internal standard was then evaluated for stability. The extent of metabolism was calculated based on the disappearance of the test compound, compared to its initial concentration. The initial rates of clearance of the test compound were calculated using the linear regression plot of semi-log % remaining of the compound versus time. The elimination rate constant (k) of the linear regression plot was then used to determine t1/2 and the intrinsic clearance (CLint) using the following formula, where Chepatocyte (million cells/mL) is the cell density of the incubation:
(§3) The predicted hepatic clearance (CLhep) was calculated using the well stirred method with the following formula with CLint(in vivo) normalized based on liver weight: […]
(§4) The relevant physiological parameters of liver weight, blood flow, and hepatocellularity for various species are listed below: […]

rat hepatocytes = test: Metabolic stability in rat hepatocytes; format: in vitro ADME
Experimental: as §1, §2, §3, §4

[2] = Metabolic stability in human hepatocytes; format: in vitro ADME; conditions: cryopreserved hepatocytes; human hepatocytes, 1 μM
Experimental: as §1, §2, §3, §4

[3] = Rat pharmacokinetics, oral dosing; format: in vivo, Sprague-Dawley rats; conditions: for AUC(0-t) / Cmax / half-life: male, Sprague-Dawley, rat plasma, 3 mg/kg PO (0.6 mg/mL); for PK properties relative to Reference Compound A: dosed orally
Experimental: Oral dosing: Compounds were formulated at 0.3 mg/mL or 0.6 mg/mL in a solution comprising 5% polyethylene glycol 400 and 95% (12% (w/v) sulfobutyl-β-cyclodextrin in water) (v/v). Formulated compounds were administered to male, 7-11 week old Sprague-Dawley rats by oral gavage at a dose of 3 mg/kg.
Sample collection: Blood collections of about 0.2 mL per time point were performed from jugular vein or other suitable site of each animal, into pre-chilled commercial EDTA-K2 tubes and placed on wet ice until centrifugation. Blood samples were processed for plasma by centrifugation at approximately 4° C., 3,200 g for 10 min. Plasma was collected and transferred into pre-labeled 96 well plate or polypropylene tubes, quick frozen over dry ice and kept at −60° C. or lower until LC-MS/MS analysis.
Data analysis: Plasma concentration versus time data was plotted in graph and analyzed by non-compartmental approaches using the Phoenix WinNonlin 6.3 software program. Related PK parameters were calculated according to dosing route, e.g., CL, Vdss and C0 for intravenous administration, Cmax, Tmax or % F for extravascular administration, and T1/2, AUC(0-t), AUC(0-inf), MRT(0-t), MRT(0-inf) for all routes.

T1 sequence (P43220 24-463): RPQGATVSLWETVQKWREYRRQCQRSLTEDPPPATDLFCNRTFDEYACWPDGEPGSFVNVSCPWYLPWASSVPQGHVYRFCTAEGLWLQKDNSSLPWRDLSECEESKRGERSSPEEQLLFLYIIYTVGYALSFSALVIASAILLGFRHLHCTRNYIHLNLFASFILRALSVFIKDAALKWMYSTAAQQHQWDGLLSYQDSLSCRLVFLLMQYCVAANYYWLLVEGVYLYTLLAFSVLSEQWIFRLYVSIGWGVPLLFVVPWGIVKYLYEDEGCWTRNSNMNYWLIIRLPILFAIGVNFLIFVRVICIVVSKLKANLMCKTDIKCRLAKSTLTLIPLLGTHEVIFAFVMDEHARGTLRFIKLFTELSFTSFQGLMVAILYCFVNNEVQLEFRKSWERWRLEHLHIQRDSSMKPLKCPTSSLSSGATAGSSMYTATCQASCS

| SMILES | EC50 (human GLP-1R receptor) [nM] | CLint scaled at 1 μM [1] [mL/min/kg] | half-life at 1 μM [1] [h] | CLint relative to reference standard (rat hepatocytes) | Half-life relative to reference (rat hepatocytes) | CLint scaled at 1 μM [2] [mL/min/kg] | half-life at 1 μM [2] [h] | AUC(0-t) ([3]; rat, plasma, po, 3 mg/kg) [ng·h/mL] | Cmax ([3]; rat, plasma, po, 3 mg/kg) [ng/mL] | half-life ([3]; rat, plasma, po, 3 mg/kg) [h] | PK properties relative to Reference Compound A ([3]; rat) | AUC(0-t) [3] [ng·h/mL] | half-life [3] [h] |
| --- | --- | --- | --- | --- | --- | --- | --- | --- | --- | --- | --- | --- | --- |
| Cc1ncsc1Cn1c(CN2CCC3(c4cccc(OCc5ccc(C#N)cc5F)n4)CC3C2)nc2ccc(C(=O)O)cc21 (stereo not shown) [Compound 12] | 232 | 91.7 ± 1.76 | 0.604 ± 0.0117 | significantly increased | significantly lower | 26.8 ± 0.8 | 1.49 ± 0.0445 | – | – | – | – | – | – |
| O=C(O)c1ccc2nc(CN3CCC(c4nccc(OCc5ccc(Cl)cc5F)n4)CC3)n(Cc3cncs3)c2c1 [Compound 23] | 3.3 | 57.9 ± 1.25 | 0.957 ± 0.0205 | significantly increased | significantly lower | 42.3 ± 1.59 | 1.11 ± 0.0523 | – | – | – | – | – | – |
| [2H]C([2H])(Oc1cccc(C2CCN(Cc3nc4ccc(C(=O)O)cc4n3Cc3cncs3)CC2)n1)c1ccc(C#N)cc1F [Compound 27] | 8.6 | 29 ± 0.58 | 1.91 ± 0.0383 | significantly lower | significantly higher | 15.6 ± 0.7 | 2.57 ± 0.117 | 617 ± 248 | 478 ± 186 | 1.37 ± 0.18 | similarly improved PK properties | – | – |
| CCc1scnc1Cn1c(CN2CCC(c3cccc(OCc4nc5c(F)cc(C#N)cc5s4)n3)CC2)nc2ccc(C(=O)O)cc21 [Compound 13] | 724 | – | – | – | significantly lower | – | – | – | – | – | – | – | – |
| N#Cc1ccc(COc2cccc(C34CCN(Cc5nc6ccc(C(=O)O)cc6n5Cc5cncs5)CC3C4)n2)c(F)c1 (stereo not shown) [Compound 14] | 30.1 | 92.8 ± 3.3 | 0.597 ± 0.0212 | significantly increased | – | 20.1 ± 0.59 | 1.99 ± 0.0583 | – | 581 ± 100 | – | similarly improved PK properties | 582 ± 45 | 3.14 ± 1.88 |
| N#Cc1cnc(COc2cccc(C3CCN(Cc4nc5ccc(C(=O)O)cc5n4Cc4cncs4)CC3)n2)c(F)c1 [Compound 29] | 27.8 | 35.8 ± 1.42 | 1.55 ± 0.0615 | significantly lower | significantly higher | 15.3 ± 0.76 | 2.61 ± 0.13 | 411 ± 32 | 299 ± 62.9 | 1.54 ± 0.46 | similarly improved PK properties | – | – |
| [2H]C([2H])(Oc1cccc(C2CCN(Cc3nc4ccc(C(=O)O)cc4n3Cc3cncs3)CC2)n1)c1ccc(Cl)cc1F [Compound 26] | 4 | 24.1 ± 0.83 | 2.3 ± 0.0792 | significantly lower | significantly higher | 20.9 ± 0.98 | 1.92 ± 0.0905 | – | – | – | – | – | – |
